# Experimental data reported in patent US11053204B2, “Pyrimidinyloxy benzene derivatives as herbicides” (FMC Corporation, priority 2015, dated 2021).
# How the values were obtained:
# Format in all cases: in vivo
# [1] = system: ducksalad (Heteranthera limosa); assay: Test B flooded paddy test, plant response rating; details: 250 g ai/ha, Flood, scale of 0 to 100 where 0 is no effect and 100 is complete control, 13 to 15 days
# Procedure, shortened: (§1)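 Pots were flooded to 3 cm above the soil surface at treatment, compound applied directly to the paddy water, and that depth held throughout. Plants were kept in a greenhouse for 13 to 15 days, then visually rated against untreated controls.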
# [2] = system: barnyardgrass (Echinochloa crus-galli); assay: Test B flooded paddy test, plant response rating; details: 250 g ai/ha, Flood, scale of 0 to 100 where 0 is no effect and 100 is complete control, 13 to 15 days
# Procedure, shortened: as §1
# [3] = system: sedge, umbrella (small-flower umbrella sedge, Cyperus difformis); assay: Test B flooded paddy test, plant response rating; details: 250 g ai/ha, Flood, scale of 0 to 100 where 0 is no effect and 100 is complete control, 13 to 15 days
# Procedure, shortened: as §1
# [4] = system: rice (Oryza sativa); assay: Test B flooded paddy test, plant response rating; details: 250 g ai/ha, Flood, scale of 0 to 100 where 0 is no effect and 100 is complete control, 13 to 15 days
# Procedure, shortened: as §1
# [5] = system: corn (Zea mays); assay: Test A postemergence, visual injury rating; details: 0 is no effect, 100 is complete control
# Procedure, shortened: (§2)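 Pre- and postemergence greenhouse screen. Soil: loam + sand. Spray carrier: solvent mixture, non-phytotoxic, with surfactant. Post timing at 1–2 leaves, height 2–10 cm. Readout: visual injury on a 0–100 scale roughly 10 days after application, untreated plants as reference.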
# [6] = system: ragweed (common ragweed, Ambrosia elatior); assay: Test A postemergence, visual injury rating; details: 0 is no effect, 100 is complete control
# Procedure, shortened: as §2
# [7] = system: galium (catchweed bedstraw, Galium aparine); assay: Test A postemergence, visual injury rating; details: 0 is no effect, 100 is complete control
# Procedure, shortened: as §2
# [8] = system: wheat (Triticum aestivum); assay: Test A postemergence, visual injury rating; details: 0 is no effect, 100 is complete control
# Procedure, shortened: as §2
# [9] = system: giant foxtail (Setaria faberii); assay: Test A postemergence, visual injury rating; details: 0 is no effect, 100 is complete control
# Procedure, shortened: as §2
# [10] = system: barnyardgrass (Echinochloa crus-galli); assay: Test A postemergence, visual injury rating; details: 0 is no effect, 100 is complete control
# Procedure, shortened: as §2
# [11] = system: blackgrass (Alopecurus myosuroides); assay: Test A postemergence, visual injury rating; details: 0 is no effect, 100 is complete control
# Procedure, shortened: as §2
# [12] = system: Italian ryegrass (Lolium multiflorum); assay: Test A postemergence, visual injury rating; details: 0 is no effect, 100 is complete control
# Procedure, shortened: as §2
# [13] = system: kochia (Kochia scoparia); assay: Test A postemergence, visual injury rating; details: 0 is no effect, 100 is complete control
# Procedure, shortened: as §2
# [14] = system: pigweed (Amaranthus retroflexus); assay: Test A postemergence, visual injury rating; details: 0 is no effect, 100 is complete control
# Procedure, shortened: as §2
# [15] = system: ragweed (common ragweed, Ambrosia elatior); assay: Test C postemergence, plant response rating
# Procedure, shortened: (§3)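 Preemergence: seeds sown in loam–sand blend or silt loam and sprayed with test chemicals in a non-phytotoxic surfactant-containing solvent. Postemergence: potted plants at 2–18 cm (1–4-leaf stage) sprayed with the same formulation. After 13–15 d in greenhouse, visual rating versus controls on 0 (no effect) to 100 (complete control) scale.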
# [16] = system: galium (catchweed bedstraw, Galium aparine); assay: Test C postemergence, plant response rating
# Procedure, shortened: as §3
# [17] = system: waterhemp (common waterhemp, Amaranthus rudis); assay: Test C postemergence, plant response rating; details: for Plant response rating, Waterhemp: scale 0 to 100; for Waterhemp plant response rating: scale 0 to 100 (0 no effect, 100 complete control)
# Procedure, shortened: as §3
# [18] = system: velvetleaf (Abutilon theophrasti); assay: Test C postemergence, plant response rating
# Procedure, shortened: as §3
# [19] = 62 g ai/ha, scale 0 to 100 (0 no effect, 100 complete control)
# [20] = 125 g ai/ha, scale 0 to 100 (0 no effect, 100 complete control)
smiles,measurement,setting,value
"O=C(OCC(F)(F)C(F)(F)F)c1c(Br)cccc1Oc1ncc(Cl)cn1 [Compound 23, 2,2,3,3,3-pentafluoropropyl 2-bromo-6-[(5-chloro-2-pyrimidinyl)oxy]benzoate]",pest or weed control at 250 g/ha,"[1]; Heteranthera limosa, 312 h",30%
same,pest or weed control at 250 g/ha,"[2]; Echinochloa crus-galli, 312 h",0%
same,pest or weed control at 250 g/ha,"[3]; Cyperus difformis, 312 h",95%
same,plant injury at 250 g/ha,"[4]; Oryza sativa, 312 h",15%
same,plant injury at 125 g/ha,"[5]; Zea mays, post-emergence, 240 h, 125 g ai/ha, read-out: Corn plant response rating (0 to 100 scale)",10%
same,plant injury at 500 g/ha,"[5]; Zea mays, post-emergence, 240 h, 500 g ai/ha, read-out: Corn plant response rating (0 to 100 scale)",20%
same,pest or weed control at 125 g/ha,"[6]; Ambrosia artemisiifolia, post-emergence, 240 h, 125 g ai/ha, read-out: Ragweed plant response rating (0 to 100 scale)",0%
same,pest or weed control at 500 g/ha,"[6]; Ambrosia artemisiifolia, post-emergence, 240 h, 500 g ai/ha, read-out: Ragweed plant response rating (0 to 100 scale)",10%
same,pest or weed control at 125 g/ha,"[7]; Galium, post-emergence, 240 h, 125 g ai/ha, read-out: Galium plant response rating (0 to 100 scale)",90%
same,pest or weed control at 500 g/ha,"[7]; Galium, post-emergence, 240 h, 500 g ai/ha, read-out: Galium plant response rating (0 to 100 scale)",100%
same,plant injury at 125 g/ha,"[8]; Triticum aestivum, post-emergence, 240 h, 125 g ai/ha, read-out: Wheat plant response rating (0 to 100 scale)",0%
same,plant injury at 500 g/ha,"[8]; Triticum aestivum, post-emergence, 240 h, 500 g ai/ha, read-out: Wheat plant response rating (0 to 100 scale)",10%
same,pest or weed control at 125 g/ha,"[9]; Setaria faberi, post-emergence, 240 h, 125 g ai/ha, read-out: Foxtail, Giant plant response rating (0 to 100 scale)",30%
same,pest or weed control at 500 g/ha,"[9]; Setaria faberi, post-emergence, 240 h, 500 g ai/ha, read-out: Foxtail, Giant plant response rating (0 to 100 scale)",80%
same,pest or weed control at 125 g/ha,"[10]; Echinochloa crus-galli, post-emergence, 240 h, 125 g ai/ha, read-out: Barnyardgrass plant response rating (0 to 100 scale)",10%
same,pest or weed control at 500 g/ha,"[10]; Echinochloa crus-galli, post-emergence, 240 h, 500 g ai/ha, read-out: Barnyardgrass plant response rating (0 to 100 scale)",50%
same,pest or weed control at 125 g/ha,"[11]; Alopecurus myosuroides, post-emergence, 240 h, 125 g ai/ha, read-out: Blackgrass plant response rating (0 to 100 scale)",10%
same,pest or weed control at 500 g/ha,"[11]; Alopecurus myosuroides, post-emergence, 240 h, 500 g ai/ha, read-out: Blackgrass plant response rating (0 to 100 scale)",50%
same,pest or weed control at 125 g/ha,"[12]; Lolium multiflorum, post-emergence, 240 h, 125 g ai/ha, read-out: Ryegrass, Italian plant response rating (0 to 100 scale)",10%
same,pest or weed control at 500 g/ha,"[12]; Lolium multiflorum, post-emergence, 240 h, 500 g ai/ha, read-out: Ryegrass, Italian plant response rating (0 to 100 scale)",70%
same,pest or weed control at 125 g/ha,"[13]; Bassia scoparia, post-emergence, 240 h, 125 g ai/ha, read-out: Kochia plant response rating (0 to 100 scale)",80%
same,pest or weed control at 500 g/ha,"[13]; Bassia scoparia, post-emergence, 240 h, 500 g ai/ha, read-out: Kochia plant response rating (0 to 100 scale)",100%
same,pest or weed control at 125 g/ha,"[14]; Amaranthus retroflexus, post-emergence, 240 h, 125 g ai/ha, read-out: Pigweed plant response rating (0 to 100 scale)",100%
same,pest or weed control at 500 g/ha,"[14]; Amaranthus retroflexus, post-emergence, 240 h, 500 g ai/ha, read-out: Pigweed plant response rating (0 to 100 scale)",100%
same,pest or weed control at 16 g/ha,"[15]; Ambrosia artemisiifolia, post-emergence, 16 g ai/ha, scale 0 to 100",15%
same,pest or weed control at 31 g/ha,"[15]; Ambrosia artemisiifolia, post-emergence, 31 g ai/ha, scale 0 to 100",35%
same,pest or weed control at 62 g/ha,"[15]; Ambrosia artemisiifolia, post-emergence, 62 g ai/ha, scale 0 to 100 (0 no effect, 100 complete control)",40%
same,pest or weed control at 125 g/ha,"[15]; Ambrosia artemisiifolia, post-emergence, 125 g ai/ha, scale 0 to 100 (0 no effect, 100 complete control)",50%
same,pest or weed control at 16 g/ha,"[16]; Galium, post-emergence, 16 g ai/ha, scale 0 to 100",50%
same,pest or weed control at 31 g/ha,"[16]; Galium, post-emergence, 31 g ai/ha, scale 0 to 100",55%
same,pest or weed control at 62 g/ha,"[16]; Galium, post-emergence, 62 g ai/ha, scale 0 to 100 (0 no effect, 100 complete control)",55%
same,pest or weed control at 125 g/ha,"[16]; Galium, post-emergence, 125 g ai/ha, scale 0 to 100 (0 no effect, 100 complete control)",80%
same,"Plant response rating, Waterhemp",[17]; 16 g ai/ha,80
same,"Plant response rating, Waterhemp",[17]; 31 g ai/ha,90
same,Waterhemp plant response rating,[17]; 62 g ai/ha,85
same,Waterhemp plant response rating,[17]; 125 g ai/ha,95
same,pest or weed control at 16 g/ha,"[18]; Abutilon theophrasti, post-emergence, 16 g ai/ha, scale 0 to 100",10%
same,pest or weed control at 31 g/ha,"[18]; Abutilon theophrasti, post-emergence, 31 g ai/ha, scale 0 to 100",35%
same,pest or weed control at 62 g/ha,"[18]; Abutilon theophrasti, post-emergence, 62 g ai/ha, scale 0 to 100 (0 no effect, 100 complete control), read-out: Velvetleaf plant response rating",35%
same,pest or weed control at 125 g/ha,"[18]; Abutilon theophrasti, post-emergence, 125 g ai/ha, scale 0 to 100 (0 no effect, 100 complete control)",40%
O=C(OCC(F)(F)F)c1c(Br)cccc1Oc1ncc(Cl)cn1 [Compound 35],"Plant response rating, Ducksalad",[1],50
same,"Plant response rating, Barnyardgrass",[2],0
same,"Plant response rating, Sedge, Umbrella",[3],60
same,"Plant response rating, Rice",[4],0
same,Corn plant response rating (0 to 100 scale),[5]; 125 g ai/ha,20
same,Corn plant response rating (0 to 100 scale),[5]; 500 g ai/ha,30
same,Ragweed plant response rating (0 to 100 scale),[6]; 125 g ai/ha,0
same,Ragweed plant response rating (0 to 100 scale),[6]; 500 g ai/ha,0
same,Galium plant response rating (0 to 100 scale),[7]; 125 g ai/ha,60
same,Galium plant response rating (0 to 100 scale),[7]; 500 g ai/ha,100
same,Wheat plant response rating (0 to 100 scale),[8]; 125 g ai/ha,0
same,Wheat plant response rating (0 to 100 scale),[8]; 500 g ai/ha,20
same,"Foxtail, Giant plant response rating (0 to 100 scale)",[9]; 125 g ai/ha,40
same,"Foxtail, Giant plant response rating (0 to 100 scale)",[9]; 500 g ai/ha,100
same,Barnyardgrass plant response rating (0 to 100 scale),[10]; 125 g ai/ha,10
same,Barnyardgrass plant response rating (0 to 100 scale),[10]; 500 g ai/ha,80
same,Blackgrass plant response rating (0 to 100 scale),[11]; 125 g ai/ha,40
same,Blackgrass plant response rating (0 to 100 scale),[11]; 500 g ai/ha,80
same,"Ryegrass, Italian plant response rating (0 to 100 scale)",[12]; 125 g ai/ha,0
same,"Ryegrass, Italian plant response rating (0 to 100 scale)",[12]; 500 g ai/ha,40
same,Kochia plant response rating (0 to 100 scale),[13]; 125 g ai/ha,90
same,Kochia plant response rating (0 to 100 scale),[13]; 500 g ai/ha,100
same,Pigweed plant response rating (0 to 100 scale),[14]; 125 g ai/ha,100
same,Pigweed plant response rating (0 to 100 scale),[14]; 500 g ai/ha,100
same,"Plant response rating, Ragweed","[15]; 16 g ai/ha, scale 0 to 100",0
same,"Plant response rating, Ragweed","[15]; 31 g ai/ha, scale 0 to 100",5
same,Ragweed plant response rating,[15]; [19],10
same,Ragweed plant response rating,[15]; [20],20
same,"Plant response rating, Galium","[16]; 16 g ai/ha, scale 0 to 100",35
same,"Plant response rating, Galium","[16]; 31 g ai/ha, scale 0 to 100",35
same,Galium plant response rating,[16]; [19],55
same,Galium plant response rating,[16]; [20],60
same,"Plant response rating, Waterhemp",[17]; 16 g ai/ha,65
same,"Plant response rating, Waterhemp",[17]; 31 g ai/ha,80
same,Waterhemp plant response rating,[17]; 62 g ai/ha,90
same,Waterhemp plant response rating,[17]; 125 g ai/ha,95
same,"Plant response rating, Velvetleaf","[18]; 16 g ai/ha, scale 0 to 100",40
same,"Plant response rating, Velvetleaf","[18]; 31 g ai/ha, scale 0 to 100",30
same,Velvetleaf plant response rating,[18]; [19],35
same,Velvetleaf plant response rating,[18]; [20],40
